{"source": "patent US6310095A", "about": "“Inhibitors of protein isoprenyl transferases” (University of Pittsburgh, priority 1998, dated 2001)", "note": "Where a name gives a salt, the structure may show the parent alone.", "data": [{"target": "T1, protein farnesyltransferase (Rattus norvegicus, UniProt Q02293+Q04631)", "T1 construct": "Rat brain protein farnesyltransferase activity is measured; from tissue; host or cells: rat brain; purified according to Reiss et al., Cell 62:81-88 (1990), steps one through three", "assay": "in vitro inhibition of protein farnesyltransferase (scintillation proximity assay, biotin-K Ras B fragment)", "format": "biochemical", "conditions": "at 1 × 10^-5 M", "how_it_was_run": "(§1)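 Rat brain enzyme, purified through three steps, in a scintillation proximity assay kit with biotin-K Ras B fragment substrate at 0.1 mM final. Value is % inhibition of farnesylation.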", "units": {"inhibition at 10 µM": "%"}, "values": [{"compound": "CSCC[C@H](NC(=O)c1ccc(CNCCN2CCCCC2)cc1-c1ccccc1)C(=O)O", "note": "[Example 366]", "inhibition at 10 µM": 83}, {"compound": "CSCC[C@H](NC(=O)c1ccc(CNc2cccc(OC(F)(F)F)c2)cc1-c1ccccc1)C(=O)O", "note": "[Example 678]", "inhibition at 10 µM": 73}, {"compound": "CSCC[C@H](NC(=O)c1ccc(NC(=O)CCN)cc1-c1ccccc1)C(=O)O", "note": "[Example 750]", "inhibition at 10 µM": 44}, {"compound": "CSCC[C@H](NC(=O)c1ccc(CNc2nccs2)cc1-c1ccccc1)C(=O)O", "note": "[Example 374]", "inhibition at 10 µM": 61}]}, {"target": "T1, protein farnesyltransferase", "assay": "in vitro inhibition of protein farnesyltransferase (scintillation proximity assay, biotin-K Ras B fragment)", "format": "biochemical", "conditions": "at 1 × 10^-6 M", "how_it_was_run": "as §1", "units": {"% inhibition of farnesyltransferase": "%"}, "values": [{"compound": "CSCC[C@H](NC(=O)c1ccc(COCCCC2CCCCC2)cc1-c1ccccc1C)C(=O)O", "note": "[Example 405]", "% inhibition of farnesyltransferase": 98}, {"compound": "Cc1ccccc1-c1cc(CN(C)C(C)(C)Cc2ccccc2)ccc1C(=O)N[C@@H](CCS(C)(=O)=O)C(=O)O", "note": "[Example 313]", "% inhibition of farnesyltransferase": 94}, {"compound": "CSCC[C@H](NC(=O)c1ccc(S(=O)(=O)NCCCn2ccnc2)cc1-c1ccccc1C)C(=O)O", "note": "[Example 777]", "% inhibition of farnesyltransferase": 83}]}, {"target": "T1, protein farnesyltransferase", "assay": "in vitro inhibition of protein farnesyltransferase (scintillation proximity assay, biotin-K Ras B fragment)", "format": "biochemical", "conditions": "at 1 × 10^-6 M; read-out: % inhibition of farnesyltransferase", "how_it_was_run": "as §1", "units": {"inhibition at 1 µM": "%"}, "values": [{"compound": "CSCC[C@H](NC(=O)c1ccc(CNc2ccc(-c3nc4ccccc4s3)cc2)cc1-c1ccccc1)C(=O)O", "note": "[Example 703]", "inhibition at 1 µM": 40}, {"compound": "CSCC[C@H](NC(=O)c1ccc(NC(=O)Cc2ccc(C)cc2)cc1-c1ccccc1C)C(=O)O", "note": "[Example 541, N-[4-N-(4'-methylphenylacetyl)amino-2-(2-methylphenyl)benzoyl]methionine lithium salt]", "inhibition at 1 µM": 37}, {"compound": "CSCC[C@H](NC(=O)c1ccc(NCC(CO)CC2CCCCC2)cc1-c1ccccc1C)C(=O)O", "note": "(stereo partly shown) [Example 479, N-[4-N-(2-cyclohexylmethyl-3-hydroxypropyl)amino-2-(2-methylphenyl)benzoyl]methionine]", "inhibition at 1 µM": 95}, {"compound": "CSCC[C@H](NC(=O)c1ccc(CN(Cc2ccccc2)c2ccccc2Cl)cc1-c1ccccc1C)C(=O)O", "note": "[Example 846, N-[4-N-(N-benzyl-N-(2-chlorophenyl)aminomethyl)-2-(2-methylphenyl)benzoyl]methionine lithium salt]", "inhibition at 1 µM": 85}, {"compound": "CSCC[C@H](NC(=O)c1ccc(CN[C@H](C)CC2CCCCC2)cc1-c1ccccc1C)C(=O)O", "note": "[Example 613, N-[4-(3-cyclohexylpropan-2-ylaminomethyl)-2-(2-methylphenyl)benzoyl]methionine]", "inhibition at 1 µM": 97}]}, {"target": "T1, protein farnesyltransferase", "assay": "in vitro inhibition of protein farnesyltransferase (scintillation proximity assay, biotin-K Ras B fragment)", "format": "biochemical", "conditions": "at 1 × 10^-7 M", "how_it_was_run": "as §1", "units": {"% inhibition of farnesyltransferase": "%"}, "values": [{"compound": "CSCC[C@H](NC(=O)c1ccc(COCc2ccc(-c3ccc(C=O)cc3)o2)cc1-c1ccccc1C)C(=O)[O-].[Li+]", "note": "[Example 448]", "% inhibition of farnesyltransferase": 92}]}, {"target": "T1, protein farnesyltransferase", "assay": "in vitro inhibition of protein farnesyltransferase (scintillation proximity assay, biotin-K Ras B fragment)", "format": "biochemical", "conditions": "at 1 × 10^-8 M", "how_it_was_run": "as §1", "units": {"% inhibition of farnesyltransferase": "%"}, "values": [{"compound": "CSCC[C@H](NC(=O)c1ccc(CO[C@H](CSC(C)(C)C)CC2CCCCC2)cc1-c1ccccc1C)C(=O)O", "note": "[Example 883]", "% inhibition of farnesyltransferase": 91}, {"compound": "CSCC[C@H](NC(=O)c1ccc(COCc2ccccc2Cl)cc1-c1ccccc1C)C(=O)[O-].[Li+]", "note": "[Example 930]", "% inhibition of farnesyltransferase": 66}, {"compound": "CSCC[C@H](NC(=O)c1ccc(CO[C@H](CSC(C)(C)C)Cc2ccccc2)cc1-c1ccccc1C)C(=O)O", "note": "[Example 994]", "% inhibition of farnesyltransferase": 83}]}, {"target": "T1, protein farnesyltransferase", "assay": "in vitro inhibition of protein farnesyltransferase (scintillation proximity assay, biotin-K Ras B fragment)", "format": "biochemical", "conditions": "at 1 × 10^-8 M; read-out: % inhibition of farnesyltransferase", "how_it_was_run": "as §1", "units": {"inhibition at 0.01 µM": "%"}, "values": [{"compound": "CSCC[C@H](NC(=O)c1ccc(CN(CCC2CCCCC2)C(=O)OC(C)(C)C)cc1-c1ccccc1C)C(=O)O", "note": "[Example 763, N-[4-N-t-Butyloxycarbonyl-N-2-cyclohexylethylaminomethyl-2-(2-methylphenyl)benzoyl]methionine lithium salt]", "inhibition at 0.01 µM": 92}, {"compound": "CSCC[C@H](NC(=O)c1ccc(CN(Cc2ccccc2)c2ccc([N+](=O)[O-])cc2)cc1-c1ccccc1C)C(=O)O", "note": "[Example 843, N-[4-(N-benzyl-N-(4-nitrophenyl)aninomethyl)-2-(2-methylphenyl)benzoyl]methionine lithium salt]", "inhibition at 0.01 µM": 96}, {"compound": "CCSC[C@H](CC1CCCCC1)N(C=O)Cc1ccc(C(=O)N[C@@H](CCSC)C(=O)O)c(-c2ccccc2C)c1", "note": "[Example 946, N-[4-N-(3-Cyclohexyl-1-ethylthiopropan-2-yl)-N-formylaminomethyl-2-(2-methylphenyl)benzoyl]methionine]", "inhibition at 0.01 µM": 52}]}]}
